# Data reported in patent US12612403B2, “Nitrogen-containing heterocyclic derivative inhibitor, and preparation method therefor and use thereof” (SHANGHAI HANSOH BIOMEDICAL CO., LTD., priority 2024, dated 2026).
# What was measured:
# PCSK9 protein = target: T1, PCSK9 protein (Homo sapiens, UniProt Q8NBP7); assay: Binding ability to PCSK9 protein (HTRF); details: PCSK9-His, Alexa Fluor 647 probe compound
# T1 construct: purchased Sino biology (Sino Biological) 29698-H08H
# Protocol: 1. Experimental objective: To detect the action of compounds to bind PCSK9 protein by an HTRF method.
# 3. Experimental data processing method: Four-parameter log(inhibitor) vs. response—Variable slope (four parameters) in XLit was used to perform non-linear fitting of the compound concentration and the corresponding inhibition rate, and IC50 was calculated.
# [1] = Pharmacokinetic determination in mice (PO 5 mg/kg, IV 1 mg/kg); type: in vivo, C57BL/6J mice; details: male, C57BL/6J, mouse, plasma, C57 mice, PO administration, 5 mpk; for AUC(0-inf): read-out: Area under the curve AUC0-∞; for half-life: read-out: Half-life t1/2 (converted); for MRT: read-out: Mean residence time MRT; for Cmax: read-out: Plasma concentration Cmax; for Tmax: read-out: Time to peak tmax
# Protocol: 1. Experimental objective: C57BL/6J mice were used as test animals to study the pharmacokinetic behavior of the compounds of the present disclosure in mice (plasma) after oral and intravenous administration.
# 2.2 Test animals: C57 mice, male, purchased from Shanghai Bk Lab Animal Co., Ltd., with animal production license number (SCXK (Shanghai) 2013-0006 N0.311620400001794).
# 2.3 Drug preparation: Preparation of oral drug: 10% Solutol HS15
# 10 g of Solutol HS15 solid was weighed, dissolved in 90 mL of pure water, uniformly mixed, stirred, and ultrasonically treated to form a clear solution. The compound of the present disclosure was weighed and dissolved in this solution, uniformly shaken, and ultrasonically treated for 15 minutes to obtain a colorless clear solution with a concentration of 0.5 mg/mL. Preparation of intravenous drug: 5% DMSO+10% Solutol HS15+85% PBS, the compound of the present disclosure was weighed, 5% DMSO was first added on the basis of the proportion relative to the total volume of administration, and the mixture was vortexed and ultrasonically treated for 2 min until it was completely dissolved; 10% of Solutol HS15 was then added, and the mixture was vortexed and ultrasonically treated for 2 min until it was completely dissolved; and finally, 85% of PBS was added, and the mixture was vortexed, ultrasonically treated for 5 min, and filtered through a 0.22 um filter membrane to obtain a colorless and transparent clear solution with a concentration of 0.2 mg/mL.
# 2.4 Administration: 3 male C57 mice were fasted overnight and then respectively administered PO at a dose of 5 mg/kg and a volume of 10 mL/kg. 3 male C57 mice were fasted overnight and then respectively administered IV at a dose of 1 mg/kg and a volume of 5 mL/kg.
# 2.5 Sample collection: Before and after administration of mice, 0.04 mL of blood was collected from the orbit at 0.083 (iv), 0.25, 0.5, 1, 2, 4, 8, and 24 hours, and placed in EDTA-K2 test tubes, which was centrifuged at 6000 rpm at 4° C. for 6 min to separate plasma which was stored at −80° C.; and the […] were fed 4 h after administration.
# 2.6 Determination results: The final determination results were obtained by using an LCMS/MS method.
# 3. Experimental results: The main pharmacokinetic parameters were calculated using WinNonlin 6.1.
# [2] = In vitro metabolic stability in human liver microsomes; type: in vitro ADME; details: pH 7.4
# Protocol: 1. Experimental objective: The purpose of this experiment was to evaluate the metabolic stability of the compounds in phase I and partially phase II in mouse, rat and human liver microsomes, respectively.
# 2.1 Drug preparation: 10 mM stock solution of the compound of the present disclosure was prepared in DMSO (or other suitable solution) and stored in a −20° C. refrigerator for later use. The compound of the present disclosure was made in house.
# 2.2 Experimental steps • 1) Preparation of buffer: 4.01 mL of 1 M K2HPO4·3H2O (AR grade) and 0.99 mL of 1 M KH2PO4 (AR grade) were dissolved in ultrapure water and the volume was adjusted to 50 mL to prepare a phosphate buffer with a final concentration of 100 mM. • 2) Preparation of compound working solution: Preparation of compound working solution: 2 μL of the compound stock solution was added to 998 μL of phosphate buffer to a final concentration of 20 μM. According to the properties of the compound, the preparation proportions could be adjusted appropriately to adjust the final concentration. • 3) Preparation of liver microsome working solution: 156.3 μL of 20 mg/mL microsomes were diluted to 5 mL with 100 mM phosphate buffer, and the mixture was mixed well to reach a final concentration of 0.625 mg/mL. • 4) Preparation of NADPH and UDPGA: 33.3 mg of NADPH and 25.8 mg of UDPGA were weighed and added to 2 mL of 100 mM phosphate buffer to reach a final concentration of 20 mM. • 5) Preparation of pore-forming agent (Alamethicin): 1 mg of Alamethicin was weighed and added to 200 μL of methanol to prepare a 5 mg/mL solution. 10 μL of the solution was taken and added to 990 μL phosphate buffer (pH 7.4) to reach a final concentration of 50 μg/mL. • 6) Preparation of reaction stop solution: The internal standard was diluted with acetonitrile (or other suitable solution) to use as a stop solution and stored in a 2° C.-8° C. refrigerator. • 7) Incubation process: 400 μL of the prepared liver microsomes, 25 μL of the compound working solution (20 μM) and 25 μL of Alamethicin (50 μg/mL) were successively added to the 96-well plate, and the mixture was pre-incubated at 37° C. for 10 min. Then, 50 μL of prepared NADPH/UDPGA was added to start the reaction, and the mixture was incubated at 37° C. The total volume of the reaction system was 500 μL. The final contents of each component were as follows:
# 50 μL of samples were taken at 0, 5, 15, 30, 60 and 120 min, respectively, 200 μL of a cold stop solution containing the internal standard was added to stop the sample reaction, the mixture was centrifuged at 3500 rpm for 10 min, and the supernatant was taken and analyzed by LC-MS/MS.
# Instruments: Shimadzu LC-20 AD; Chromatographic column: Phenomenex Gamin® C18 (50*4.6 mm, 5 μm particle size); mobile phase: A: 0.1% aqueous formic acid, B: acetonitrile; Elution gradient: 0.2-1.6 min, […], 3.0-3.1 min, 95% A to 5% A; Flow rate: 1.0 ml/min; Run time: 4.0 min; Injection volume: 5 μL.
# Instruments: AP14000 liquid chromatography mass spectrometer, AB Sciex; Ion source: electrospray ionization source (ESI); Drying gas: N2, temperature 500° C.; Electrospray voltage: 5000 V; Detection mode: positive ion detection; Scanning mode: Reaction Monitoring (MRM) mode; Scanning time: 0.8401 s.
# 3. Data processing: The raw data were calculated according to the following formula: […]
# The in vitro liver microsome intrinsic clearance rate (CLint) and liver intrinsic clearance rate (CLint,liver) were calculated by Ke.
# [3] = tested on: PCSK9 secreted by HepG2 cells; assay: Effect on the concentration of PCSK9 secreted by HepG2 cells (ELISA); type: cell-based; details: Homo sapiens, 48 hours, PCSK9 in culture medium by ELISA
# Protocol: 1. Experimental objective: To detect the inhibitory effect of the compounds on PCSK9.
# 2. Experimental method: • 1) HepG2 cell strain was cultured in the complete culture medium at 37° C., 5% CO2 to 70-90% confluence. • 2) The cells were digested and resuspended in the experimental culture medium, inoculated at 25,000 cells/well/200 μL in a 96-well cell culture plate, and cultured at 37° C. and 5% CO2 for 20-24 hours. • 3) The culture medium was removed from the cell culture plate, and the cell culture plate was washed once by adding 200 ul of the experimental culture medium to each well. • 4) Preparation of positive control compound and compound to be tested: the positive control compound and the compound to be tested were diluted on the compound plate. • 5) The diluted compound was added to the cell culture plate at 250 μL per well and incubated at 37° C. and 5% CO2 for 48 hours. • 6) The cell culture medium was collected at 200 μL per well and cryopreserved at −80° C. for later use. • 7) A sample of the cell culture medium was taken from the −80° C. cryopreservation condition, dissolved, vortexed, and centrifuged for later use. • 8) Preparation of standard curve: corresponding volumes of Dilution buffer were successively added to respective standard tubes, and in the order of the concentrations of 10, 5, 2.5, 1.25, 0.625, 0.313, 0.16, 0 ng/mL, the standard was diluted in series by taking the corresponding volume from the original tube or the last concentration tube. • 9) Preparation of washing liquid: 10x Wash buffer was diluted into 1x with Milli-Q for later use. • 10) According to the standard curve wells and sample wells set according to a plate map, 100 μL/well of the corresponding standards and culture medium samples were added to the wells, with 2 replicate wells. A self-adhesive seal was applied, the plate was placed on a plate shaker at room temperature, gently shaken, uniformly mixed, and incubated for 1 hour. • 11) The plate was placed on the plate washer, the washing liquid was set to 350 μL per well, and the plate was washed 4 times repeatedly. • 12) 100 μL/well of an HRP-conjugated detection antibody was added, a self-adhesive seal was applied, and the plate was placed on the plate shaker, well mixed uniformly, and incubated for 1 hour. • 13) The plate was placed on the plate washer, the washing liquid was set to 350 μL per well, and the plate was washed 4 times repeatedly. • 14) 100 μL/well of Substrate reagent was added, and the plate was placed in the dark, applied with a self-adhesive seal, placed on the plate shaker, well mixed uniformly, and incubated for 10-20 minutes. • 15) 100 μL of Stop solution (1N H2SO4) was added to each well and mixed uniformly. • 16) The optical density (OD) value in each well was measured in sequence at a wavelength of 450 nm by the microplate reader. Detection was carried out within 30 min after the reaction was stopped.
# 3. Experimental data processing method: After the OD values were read by the microplate reader, the OD value of the 0-concentration standard in the standard group was subtracted from the OD values of the standards, control group, and samples to obtain the actual OD values for these wells. A standard curve was plotted with Graphpad and the concentration of the sample was calculated. If the dilution was performed during the sample detection, the calculated sample concentration was necessarily multiplied by the corresponding dilution ratio in the final calculation, which was the actual concentration of the sample. Inhibition rate=(actual concentration in control−actual concentration in sample)/actual concentration in control*100. According to the inhibition rates corresponding to the different concentrations, IC50 was derived by Graphpad.
# T1 sequence (Q8NBP7 153-692): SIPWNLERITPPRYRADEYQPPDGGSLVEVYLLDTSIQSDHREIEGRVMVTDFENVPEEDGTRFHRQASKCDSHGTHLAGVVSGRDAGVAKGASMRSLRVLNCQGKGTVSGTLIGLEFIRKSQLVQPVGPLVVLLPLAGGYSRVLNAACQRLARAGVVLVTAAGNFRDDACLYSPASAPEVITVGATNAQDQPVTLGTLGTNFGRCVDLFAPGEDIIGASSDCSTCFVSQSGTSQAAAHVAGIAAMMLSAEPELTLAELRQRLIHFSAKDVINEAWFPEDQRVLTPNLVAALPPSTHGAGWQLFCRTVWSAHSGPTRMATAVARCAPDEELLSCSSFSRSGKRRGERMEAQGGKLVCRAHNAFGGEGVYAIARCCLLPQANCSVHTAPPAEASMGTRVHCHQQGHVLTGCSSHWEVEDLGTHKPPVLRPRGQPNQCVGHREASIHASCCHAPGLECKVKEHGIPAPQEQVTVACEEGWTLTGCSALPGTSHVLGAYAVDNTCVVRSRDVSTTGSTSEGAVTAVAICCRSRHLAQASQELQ
Structure (SMILES),IC50 (PCSK9 protein) [µM],AUC(0-inf) [1] [µg·h/mL],half-life [1] [h],MRT [1] [h],Cmax [1] [µg/mL],Tmax [1] [h],half-life at 1 µM [2] [h],microsomal CLint at 1 µM [2] [µL/min/mg],IC50 [3] [µM]
O=c1nc(O)c(F)cn1-c1ccc(N[C@H]2CC[C@H](Nc3nc4cc(C(F)(F)F)ccn4n3)C2)nc1 [Example 110],0.0187,11.3,3,2.6,2.92,1,78.7,0.3,–
N#Cc1cnc2c(c1)C(=O)N(c1ccc(N[C@H]3CC[C@H](Nc4nc5cc(OC(F)F)ccn5n4)C3)nc1)C2 [Example 123],0.0115,62.2,2.4,4.3,9.92,2,–,–,5.2
N#Cc1ccc2c(n1)CN(c1ccc(N[C@H]3CC[C@H](Nc4nc5cc(OC(F)F)ccn5n4)C3)nc1)C2=O [Example 132],0.01,30.6,2.9,3,8.57,0.5,–,–,6.5
O=C1c2ncc(F)cc2CN1c1cnc(N[C@H]2CC[C@H](Nc3nc4cc(C(F)(F)F)ccn4n3)C2)c(F)c1 [Example 145],0.0106,22.6,3.3,3.1,6.31,1,–,–,2.9
[2H]C1([2H])c2ncccc2C(=O)N1c1ccc(N[C@H]2CC[C@H](Nc3nc4cc(C(F)(F)F)ccn4n3)C2)nc1 [Example 114],0.0089,7.23,3.1,3,2.35,0.5,–,–,14.7
O=C1c2ccc(C(F)(F)F)nc2CN1c1cnc(N[C@H]2CC[C@H](Nc3nc4cc(OC(F)F)ccn4n3)C2)c(F)c1 [Example 159],0.0168,76.8,9.8,10.7,7.66,2,20.1,1.15,–
"N#Cc1cnc2c(c1)C(=O)N(c1ccc(N[C@H]3CC[C@H](Nc4nc5cc(C(F)(F)F)ccn5n4)C3)nc1)C2 [Example 65, 5-carbonyl-6-(6-(((1S,3S)-3-((7-(trifluoromethyl)-[1,2,4]triazolo[1,5-a]pyridin-2-yl)amino)cyclopentyl)amino)pyridin-3-yl)-6,7-dihydro-5H-pyrrolo[3,4-b]pyridine-3-carbonitrile]",0.0139,70,4,5.8,7.87,4,–,–,12.8
O=C1c2ncccc2CN1c1cnc(N[C@H]2CC[C@H](Nc3nc4cc(F)ccn4n3)C2)c(F)c1 [Example 164],0.0072,–,–,–,–,–,15.6,1.48,–
O=C1c2ccc(C(F)(F)F)nc2CN1c1ccc(N[C@H]2CC[C@H](Nc3nc4cc(OC(F)F)ccn4n3)C2)nc1 [Example 133],0.0078,86.8,5,5.8,11,2,–,–,0.4
